“Also recorded” adds a separate entry of the source. Read-outs that look alike come from different tables or passages of the source.
Key:
[1] = tested on: rabbit corneal endothelial cells; details: cited from earlier work; for cell shape in first passage cultures (rabbit): EGF and/or indomethacin
[2] = tested on: cultured corneal endothelial cells; experiment: Pharmacological regulation of morphology and mitosis in cultured rabbit corneal endothelium (Example 2); format: cell-based
[3] = tested on: rabbit corneal endothelial cells; experiment: Cell shape morphometry of confluent cultured rabbit corneal endothelial cells (Example 1); details: for rank order of potency of cyclooxygenase inhibitors on cell shape: effect on cell shape in presence of EGF; for potentiation of EGF-induced elongation: 10^-5, equimolar, in presence of EGF; for cell shape at confluence / mean / distribution of the major axes (Amax): cultured seven days; for cell shape at confluence: control cells polygonal; for mean / distribution of the major axes (Amax): control mean 33 μ; for ratio Per/Amax: perimeter / major axis, 3.14 for a perfectly round cell
cat corneal endothelium = details: 22° C.; cited from earlier work
[4] = tested on: cultured corneal endothelial cells; details: control cultures and cultures with EGF
[5] = tested on: most cell culture systems; details: cited from earlier work
[6] = tested on: Corneal endothelial cells; experiment: Transmission electron microscopy of pharmacologically modulated endothelial phenotypes; details: cultured cells
[7] = tested on: intact rabbit corneal endothelium; experiment: Endothelial wound closure in excised rabbit corneas, specular microscopy with morphometric analysis (Example 3)
[8] = tested on: human corneal endothelial cells; details: EGF and/or indomethacin; cited from earlier work
[9] = tested on: Corneal endothelial cells; experiment: f-actin labelling with rhodamine labelled phallacidin in cultured corneal endothelial cells; details: 1 week culture; control shows circumferential bands of f-actin
[10] = EGF 10 ng/ml, indomethacin 1 μM in M-K medium

Molecule: CCCCC[C@H](O)/C=C/[C@H]1[C@H](O)CC(=O)[C@@H]1C/C=C\CCCC(=O)O [PGE2, prostaglandin E2]
- effect of exogenous PGE2 on elongation in cultures treated with EGF and indomethacin ([1]; added with EGF and indomethacin): blocks elongation

Molecule: CCCCCCCCCCCCCC(=O)O[C@@H]1[C@@H](C)[C@@]2(O)[C@@H](C=C(CO)C[C@]3(O)C(=O)C(C)=C[C@@H]23)[C@H]2C(C)(C)[C@]12OC(C)=O [TPA]
- cell density / mitosis, agent alone [2]: increased cell density
- cell shape (elongation), agent alone [2]: caused elongation
- synergy when TPA and EGF both present in the medium [2]: synergistic effects were not noted

Molecule: CC(C(=O)O)c1ccc(-c2ccccc2)c(F)c1 (stereo not shown) [flurbiprofen]
- rank order of potency of cyclooxygenase inhibitors on cell shape [3]: indomethacin>suprofen>flurbiprofen

Molecule: CC(C(=O)O)c1ccc(C(=O)c2cccs2)cc1 (stereo not shown) [suprofen]
- potentiation of EGF-induced elongation [3]: Potentiation of EGF-induced elongation also occurs
- rank order of potency of cyclooxygenase inhibitors on cell shape [3]: indomethacin>suprofen>flurbiprofen

Molecule: CCCCC/C=C\C/C=C\C/C=C\C/C=C\CCCC(=O)O [arachidonic acid]
- effect on cell shape ([3]; added in the absence of EGF, in the presence or absence of indomethacin): had no effect on cell shape

Molecule: epidermal growth factor [EGF]
- time for association of radiolabeled EGF to be complete (cat corneal endothelium): approximately 120 minutes
- synthesis of PGE2 [4]: unaffected
- cell density ([3]; compared with cells grown under control conditions): little or no effect on cell density
- cell shape at confluence [3]: spindle-shaped at confluence
- mean / distribution of the major axes (Amax) [3]: significantly greater distribution of major axes
- ratio Per/Amax [3]: decreases significantly
- cell shape in first passage cultures (rabbit) [1]: cause elongation
- shape change in cultured rabbit tissue (April 1986 paper) [1]: induce a shape change in the cells that is independent of mitosis
- time after addition at which DNA synthesis reaches a maximum [5]: about 22 hours
- time after addition at which increased DNA synthesis begins [5]: approximately 15 hours
- ultrastructure by transmission electron microscopy [6]: Junctional complexes were absent
- average percent change of the shape factor relative to control group ([7]; 150 minutes after wounding): two times greater
- average displacement of cells near the wound boundary ([7]; 150 minutes after wounding, control 7 μm): ~16 μm
- migration of cells near the wound boundary vs control group [7, 10]: migrated significantly more than those in the control group; also recorded: significantly increased migration of cells near the wound boundary
- wound closure time vs control group [7, 10]: shortened the wound closure time
- time after wounding at which wound area reached maximum ([7]; EGF 10 ng/ml, indomethacin 1 μM in M-K medium, 37° C., control 20 minutes): 10 min
- time for wound area to decrease to 50% of the original size ([7]; EGF 10 ng/ml, indomethacin 1 μM, control about 240 minutes): ≤ 120 min
- relative average percent change of the shape factor, significance vs control (FIG. 3) ([7]; EGF+indomethacin at 50, 100, 150 minutes, EGF at 100 and 150 minutes): significantly different from the control group
- time of peak of the shape change ([7]; one cornea per group, control 200 minutes): 150 min
- wound closed to percent of the original size ([7]; within 250 minutes after wounding): 80%
- cell shape in first passage cultures (human) [8]: cause elongation

Molecule: CCCCC[C@H](O)/C=C/[C@@H]1[C@@H](C/C=C\CCCC(=O)O)[C@@H](O)C[C@H]1O [PGF2α]
- effect on elongation of Amax produced by EGF and indomethacin ([3]; increasing concentrations/doses added with EGF and indomethacin): has no effect on the elongation of Amax

Molecule: COc1ccc2c(c1)c(CC(=O)O)c(C)n2C(=O)c1ccc(Cl)cc1 [indomethacin]
- cellular elongation, INDO added to TPA containing medium ([2]; with TPA): marked enhancement of cellular elongation
- final cell density, INDO added to TPA containing medium ([2]; with TPA): had no effect on final cell density
- synthesis of PGE2 [4]: totally inhibits
- cell shape at confluence [3]: elongated at confluence with a stellate shape
- mean / distribution of the major axes (Amax) [3]: increases
- rank order of potency of cyclooxygenase inhibitors on cell shape [3]: indomethacin>suprofen>flurbiprofen
- ratio Per/Amax [3]: 2.6
- cell shape in first passage cultures (rabbit) [1]: cause elongation
- PGE2 synthesis by cultures of polygonal endothelial cells [1]: totally inhibited
- f-actin staining pattern [9]: almost completely lacking in individual actin fibers
- cell shape in first passage cultures (human) [8]: cause elongation

Molecule: Cholera toxin
- cell shape (elongation), agent alone [2]: had no effect on cell shape
- effect on EGF and INDO-induced elongation [2]: antagonized EGF and INDO-induced elongation
- effect on EGF-induced elongation [2]: EGF-induced elongation did not occur
- effect on cell density / mitosis in presence of EGF and INDO [2]: without preventing increased cell density
- effect on elongation in response to TPA [2]: did not prevent elongation in response to TPA
- effect on mitogenic effect of EGF [2]: potentiated
- effect on mitogenic response to TPA [2]: potentiate the mitogenic response

Molecule: C[C@@H]1C[C@H]2[C@@H]3CCC4=CC(=O)C=C[C@]4(C)[C@@]3(F)[C@@H](O)C[C@]2(C)[C@@]1(O)C(=O)CO [dexamethasone]
- potentiation of EGF-induced elongation [3]: has no effect
- rank order of potency of cyclooxygenase inhibitors on cell shape [3]: inactivity

Molecule: C=C[C@@]1(C)CC(=O)[C@]2(O)[C@@]3(C)[C@@H](O)CCC(C)(C)[C@@H]3[C@H](O)[C@H](OC(C)=O)[C@@]2(C)O1 [Forskolin]
- effect on EGF and INDO-induced elongation ([2]; added with EGF and INDO): prevented EGF and INDO-induced elongation
- effect on cell density / mitosis in presence of EGF and INDO ([2]; added with EGF and INDO): inhibited endothelial mitosis
